# Laboratory results from PMC11040665, “Aminothiazolone Inhibitors Disrupt the Protein–RNA Interaction of METTL16 and Modulate the m^6A RNA Modification” (JACS Au, 2024).
# Columns and labels:
# [1] = tested on: total RNA m^6A level in A549 cells; assay: Total RNA m6A level by dot blot, A549; assay type: cell-based, human; details: 50 μM, 24 h, 45 potassium salt used
# Experimental: (§1) MDA-MB-231 cells and A549 cells were seeded into 6-well plates at 70% confluency and cultured overnight. Afterward they were treated with compound 45 potassium salt for 24 h. After the compound treatment, the cell culture medium was discarded and cells were washed with DPBS three times. The total RNA was then purified using RNeasy Mini Kit (Qiagen 74106) following the manufacturer’s protocol.
# (§2) Concentrations of the total RNA were measured by NanoDrop and each sample was calibrated to the same concentration using RNase-free water. RNA samples were heated at 95 °C for 3 min and immediately chilled on ice to disrupt the secondary structures. The total RNA (1 μg) was dropped onto a positively charged nylon membrane (Invitrogen, AM10102). The membrane with RNA side up was immediately transferred to the UVP Cross-linker (Analytik Jena) with […] bulb and cross-linked under the UV light for 5 min two times, then the membrane was washed in TBST (1xTBS with 0.1% Tween 20) for 10 min at room temperature and blocked with 5% skimmed milk in TBST for 1 h at room temperature. The membrane was incubated with the anti-m^6A antibody (Synaptic systems 202003, 1 μg/mL) overnight at 4 °C. […] The membrane was further washed with TBST and detected with the Amersham ECL Prime Western Blotting Detection Reagent. […]
# [2] = tested on: MAT2A mRNA splicing in A549 cells; assay: MAT2A splicing by RT-qPCR, A549; assay type: cell-based, human; details: 50 μM, 24 h, 45 potassium salt used
# Experimental: as §1
# The reverse transcription was performed by using High-Capacity cDNA Reverse Transcription Kits (Thermo Fisher 4368814) with 500 ng of total RNA. qPCR was performed using PowerUp SYBR Green Master Mix (Thermo Fisher, A25742) with a 10 μL volume. The cycling was performed using Bio-Rad CFX96 Real-Time PCR Detection System following the standard cycling mode (primer Tm ≥ 60 °C) on the manufacturer’s protocol. The p value was calculated using GraphPad Prism software’s one-way ANOVA analysis.
# Figure S10. Cellular evaluation of selected METTL16 inhibitors. (A)Suppression on cell viability in A549 cells.
# Data are shown as mean ± SEM, n=3. (B) Suppression on cell viability in HCT116 cells. Data are shown as mean ± SEM, n=3. (C) Spliced MAT2A in A549 cells increased after treated 24 h with indicated dose of 45. Data are shown as mean ± SEM, n=4. **P<0.01, ns P>0.05. (D) Total RNA m 6A level in A549 cells after treated 24 h with 45. 45 potassium salt was used for MAT2A splicing and total RNA m 6A level evaluation. […]
# [3] = tested on: total m^6A level in MDA-MB-231 cells; assay: Total RNA m6A level by dot blot, MDA-MB-231; assay type: cell-based, human; details: 50 μM, 24 h, 45 potassium salt used
# Experimental: as §1, §2
# [4] = biological target: T1, METTL16 (1-291) (Homo sapiens, UniProt Q86W50); assay: Covalent binding evaluation by protein LC–MS; details: 30 μM METTL16 (1-291), 100 μM compound, 30 or 150 min
# T1 construct: METTL16 MTD (1–291) was subcloned to pOPINB plasmid; His tag followed by HRV 3C cleavage site (N, cleaved yes); made in house; host or cells: E. coli Rosetta (DE3)
# T1 sequence (Q86W50 1-291): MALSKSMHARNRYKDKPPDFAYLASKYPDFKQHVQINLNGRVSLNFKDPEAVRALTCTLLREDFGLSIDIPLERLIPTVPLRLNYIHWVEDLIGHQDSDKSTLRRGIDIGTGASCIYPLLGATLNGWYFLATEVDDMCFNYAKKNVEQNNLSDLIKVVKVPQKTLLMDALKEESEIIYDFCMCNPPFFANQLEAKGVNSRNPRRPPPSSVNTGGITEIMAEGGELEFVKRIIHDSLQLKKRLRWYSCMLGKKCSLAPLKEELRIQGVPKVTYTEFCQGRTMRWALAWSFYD
# Experimental: To evaluate whether the aminothiazolones covalently bind to METTL16, we performed the LC–MS analysis after incubating the protein with aminothiazolones for 30 and 150 min, respectively. In the case of covalent binding, we would expect to observe the formation of covalent adducts, which would accrue over time. […] Besides the LC–MS analysis result, an irreversible inhibition counter screening indicated the reversible inhibitory activity of the aminothiazolones (Figure S8A).
# Figure S7. Covalent evaluation of METTL16 inhibitors via LC-MS. (A) Deconvoluted mass spectrum of 30 µM METTL16 (1-291) incubated with 1% DMSO for 30 min (left) and 150 min (right). (B), (C), (D) Deconvoluted […]
# (right). Expected Mass for METTL16 (1-291), 33455.7 Da. The observed small mass shift of ~50 Da appeared in both the DMSO control and compound-treated samples was probably formed by the solvent used in the LC-MS.
# (1 picture or pasted object on this page, not shown here)
# For computational docking analysis of aminothiazolones to the RNA binding site of METTL16 (PDB code: 6B91)2 Schrödinger® Maestro 12.3 was used. […]
# Chemical states were generated with the ligand preparation module and METTL16 conformation with the protein preparation module. […] The glide dock module was used and the results were evaluated according to interactions between small molecules and METTL16, small molecule orientations, docking scores and solvent exposure patterns. […]
# METTL16 MTD protein was diluted in SEC buffer (20mM pH 7.5, 200 mM NaCl, 0.5 mM TCEP,5% v/v glycerol) to a final concentration of 30 µM, and incubated with DMSO or 100 μM compound (final 1% DMSO) at room temperature. After incubation (30 min or 150 min), the samples were analyzed on an Agilent 1260 II Infinity system equipped with an electrospray ion source in positive mode, run through a Desalting cartridge (AdvanceBio Desalting-RP, 2.1 mm, 12.5mm, Agilent) with a gradient of 5-80% HPLC-grade acetonitrile (+ 0.1% TFA) in HPLC-grade water (+ 0.1% TFA) (flowrate: 0.4 mL/min, runtime: 6 min). […]
# [5] = biological target: T2, METTL16 MTD (Homo sapiens, UniProt Q86W50); assay: Michaelis–Menten kinetics study, in vitro methylation assay at different SAM concentrations; assay type: biochemical; details: SAM from 75 µM, two-fold dilution
# T2 construct: METTL16 MTD (1–291) was subcloned to pOPINB plasmid; His tag followed by HRV 3C cleavage site (N, cleaved yes); made in house; host or cells: E. coli Rosetta (DE3)
# T2 sequence (Q86W50 1-291): T1 sequence (Q86W50 1-291)
Structure (SMILES),"total m^6A RNA level, in words [1]","MAT2A splicing, in words [2]","total m^6A RNA level, in words [3]",covalent adduct formation with METTL16 (LC–MS) [4],inhibition mode with SAM (Michaelis–Menten kinetics) [5]
CN1C(=O)C(=C2SC(NS(=O)(=O)c3ccc(C(=O)O)cc3)=NC2=O)c2cc(Br)ccc21 [Compound 45],increased the total m^6A mRNA levels,promoted MAT2A splicing,increased the total m^6A mRNA levels,no such covalent adduct with a mass shift was observed,–
O=C1N=C(NS(=O)(=O)c2ccc(C(=O)O)cc2)SC1=C1C(=O)Nc2ccc(Br)cc21 [Compound 47],–,–,–,no such covalent adduct with a mass shift was observed,noncompetitive inhibition mode with SAM
